Results published in patent publication EP1100483B1, “GLUCOCORTICOID-SELECTIVE ANTI-INFLAMMATORY AGENTS” (Abbott Laboratories, priority 1998, dated 2000).

Target: T1, human glucocorticoid receptor-α [GRX] isoform (Homo sapiens, UniProt P04150)
T1 construct: purchased Ligand Pharmaceuticals (San Diego, CA); host or cells: insect SF21 cells (baculovirus)
T1 sequence (P04150 1-777): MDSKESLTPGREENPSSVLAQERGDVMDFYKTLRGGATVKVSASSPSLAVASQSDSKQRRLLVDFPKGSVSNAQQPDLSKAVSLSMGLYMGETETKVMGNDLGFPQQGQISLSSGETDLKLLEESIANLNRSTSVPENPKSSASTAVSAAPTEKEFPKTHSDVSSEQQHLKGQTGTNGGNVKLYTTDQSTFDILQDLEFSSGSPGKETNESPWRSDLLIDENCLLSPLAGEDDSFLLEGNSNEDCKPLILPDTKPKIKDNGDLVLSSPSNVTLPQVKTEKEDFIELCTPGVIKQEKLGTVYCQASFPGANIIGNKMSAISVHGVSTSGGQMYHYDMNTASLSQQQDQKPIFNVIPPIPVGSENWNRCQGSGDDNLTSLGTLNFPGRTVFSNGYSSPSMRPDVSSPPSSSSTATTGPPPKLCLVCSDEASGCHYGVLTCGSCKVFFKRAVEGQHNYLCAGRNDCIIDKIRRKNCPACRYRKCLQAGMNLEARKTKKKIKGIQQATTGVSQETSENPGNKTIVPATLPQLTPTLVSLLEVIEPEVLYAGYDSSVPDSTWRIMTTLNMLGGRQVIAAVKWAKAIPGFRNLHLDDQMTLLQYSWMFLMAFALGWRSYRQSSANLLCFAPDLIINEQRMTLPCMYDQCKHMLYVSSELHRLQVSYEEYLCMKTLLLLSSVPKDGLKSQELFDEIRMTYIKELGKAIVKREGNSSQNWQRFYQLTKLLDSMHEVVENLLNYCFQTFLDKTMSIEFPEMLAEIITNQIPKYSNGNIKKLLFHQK
Test: glucocorticoid receptor (GR) cytosol binding assay, [3H]-dexamethasone competition
Details: not given
Description: For glucocorticoid receptor (OR) cytosol binding assays, the procedure described in Anal. […] Briefly, cytosol preparations of human glucocorticoid receptor-α [GRX] isoform and human progesterone receptor-A [PRA] isoform were obtained from Ligand Pharmaceuticals (San Diego, CA). Both receptor cDNAs were cloned into baculovirus expression vectors and expressed in insect SF21 cells. […] Glass fiber type C multiscreen MAFC NOB plates were from Millipore ( Burlington, MA). Hydroxyapatide Bio-Gel HTP gel was obtained from Bio-Rad Laboratories (Hercules. CA). Tris(hydroxymethyl)aminomethane (Tris), ethylenediaminetetraacetic acid (EDTA), glycerol, dithiothreitol (DTT) and sodium moylybdate were obtained from Sigma Chemicals (St. Louis, MO). Microscint-20 scintillation fluid was obtained from Packard Instrument (Meriden, CT). […] GRX and PRA binding reactions were performed in Millipore Multiscreen plates. […] Specific binding was defined as the difference between binding of [^3H]Dex in the absence and in the presence of 1µM unlabeled Dex. After an overnight incubation, 50 µL of hydroxyapatite (25 % weight/volume) slurry were added to each well and plates were incubated for 10 min at 4 °C in a plate shaker. Plates were suctioned with a Millipore vacuum manifold and each well was rinsed with 300 µL of ice-cold binding buffer. A 250 µL aliquot of Packard Microscint-20 was added to each well and the wells were shaken at room temperature for 20 minutes. The amount of radioactivity was determined with a Packard TopCount plate reader.

Compared with `CN(C)c1ccc(C(c2ccc(N(C)C)cc2)c2ccccc2F)cc1` [Example 25, 4',4" bis(dimethylamino)-2-fluorotriphenylmethane], `Cc1ccccc1C(c1ccc(N(C)C)cc1)c1ccc(N(C)C)cc1` [Example 15, 4',4" bis(dimethylamino)-2-methyltriphenylmethane] is 1.8-fold lower in Ki: 5270 nM for the first, 2960 nM for the second.

Going from `CN(C)c1ccc(C(c2ccc(N(C)CCOC(=O)c3ccccc3)cc2)c2cc([N+](=O)[O-])ccc2Cl)cc1` (stereo not shown) [Example 50, 4'-dimethylamino-4"-(N-methyl-N-(2-benzoyloxyethyl)amino)-2-chloro-5-nitrotriphenylmethane] to `CCCCN(CCCC)c1ccc(C(c2ccc(N(C)C)cc2)c2cc([N+](=O)[O-])ccc2Cl)cc1` (stereo not shown) [Example 43, 4'-dimethylamino-4"-(di-n-butylamino)-2-chloro-5-nitrotriphenylmethane], the Ki rises from 1630 nM to 4490 nM (2.8-fold). The first binds more tightly here.

`CN(C)c1ccc(C(c2ccc(N(C)C)cc2)c2ccccc2C(F)(F)F)cc1` [Example 10, 4',4" bis(dimethylamino)-2-trifluoromethyltriphenylmethane] and `CN(C)c1ccc(C(c2ccc(N(C)C)cc2)c2ccccc2Br)cc1` [Example 14, 4',4" bis(dimethylamino)-2-bromotriphenylmethane] are within 1.5-fold of each other in Ki: 2230 nM for the first, 1510 nM for the second.

Going from `Cc1cc(C(c2ccc(N(C)C)cc2)c2cc([N+](=O)[O-])ccc2Cl)ccc1N(C)C` (stereo not shown) [Example 44, 3'-methyl-4',4"-bis(dimethylamino)-2-chloro-5-nitrotriphenylmethane] to `CN(C)c1ccc(C(c2ccc(N3CCCC3)cc2)c2cc([N+](=O)[O-])ccc2Cl)cc1` (stereo not shown) [Example 41, 4'-dimethylamino-4"-(N-pyrrolidinyl)-2-chloro-5-nitrotriphenylmethane], the Ki rises from 287 nM to 4490 nM (16-fold). The first binds more tightly here.

Going from `COc1ccc(C(c2ccc(N(C)C)cc2)c2ccc(N(C)C)cc2)cc1` [Example 38, 4',4"bis(dimethylamino)-4-methoxytriphenylmethane] to `CN(C)c1ccc(C(c2ccc(N(C)C)cc2)c2ccccc2I)cc1` [Example 26, 4',4" bis(dimethylamino)-2-iodotriphenylmethane], the Ki falls from 4710 nM to 734 nM (6.4-fold). The second binds more tightly here.

`CN(C)c1ccc(C(c2ccc(N(C)C)cc2)c2c(Cl)cccc2Cl)cc1` [Example 20, 4',4" bis(dimethylamino)-2,6-dichlorotriphenylmethane] and `CN(C)c1ccc(C(c2ccc(N(C)C)cc2)c2cccc(Cl)c2Cl)cc1` [Example 21, 4',4" bis(dimethylamino)-2,3-dichlorotriphenylmethane] are within 1.5-fold of each other in Ki: 1930 nM for the first, 1890 nM for the second.

Going from `CN(C)c1ccc(C(c2ccc(N3CCCCC3)cc2)c2cc([N+](=O)[O-])ccc2Cl)cc1` (stereo not shown) [Example 46, 4'-dimethylamino-4"-(N-piperidinyl)-2-chloro-5-nitrotriphenylmethane] to `CN(C)c1ccc(C(c2ccc(N3CCOCC3)cc2)c2cc([N+](=O)[O-])ccc2Cl)cc1` (stereo not shown) [Example 40, 4'-dimethylamino-4"-(N-morpholinyl)-2-chloro-5-nitrotriphenylmethane], the Ki falls from 1160 nM to 252 nM (4.6-fold). The second binds more tightly here.

`CN(C)c1ccc(C(c2ccc(N(C)C)cc2)c2cc(C(F)(F)F)ccc2Cl)cc1` [Example 17, 4',4" bis(dimethylamino)-2-chloro-5-trifluoromethyltriphenylmethane] and `CN(C)c1ccc(C(c2ccc(N(C)C)cc2)c2ccc(Cl)cc2Cl)cc1` [Example 18, 4',4" bis(dimethylamino)-2,4-dichlorotriphenylmethane] are within 1.5-fold of each other in Ki: 4700 nM for the first, 5000 nM for the second.

In the case of `CN(C)c1ccc(C(c2ccc(N(C)C)cc2)c2cc3c(cc2Cl)OCO3)cc1` [Example 19, 4',4" bis(dimethylamino)-2-chloro-4,5-methylenedioxytriphenylmethane], the Ki is reported as 1600 nM.

Same assay, conditions: [3H]-Dex ~0.9 nM, GRX cytosol, 4 °C overnight; Cheng-Prusoff; read-out: Ki (nM) GR

`CN(C)c1ccc(C(Oc2ccc(Cl)cc2)c2cc([N+](=O)[O-])ccc2Cl)cc1` (stereo not shown) [Example 53, 4-chlorophenyl-[(4'-dimethylaminophenyl)-(2-chloro-5-nitrophenyl)methyl] ether] and `CN(C)c1ccc(C(c2ccccc2)c2cc([N+](=O)[O-])ccc2Cl)cc1` (stereo not shown) [Example 56, 4'-dimethylamino-2-chloro-5-nitrotriphenylmethane] are within 1.5-fold of each other in Ki: 788 nM for the first, 1030 nM for the second.

`CN(C)c1ccc(C(c2ccc(N(C)C)cc2)c2cc(NC(=O)C3CC3)ccc2Cl)cc1` [Example 62, 4',4" bis(dimethylamino)-2-chloro-5-(cyclopropylcarbamido)-triphenylmethane] and `CC(=O)Nc1ccc(Cl)c(C(c2ccc(N(C)C)cc2)c2ccc(N(C)C)cc2)c1` [Example 3, 4',4" bis(dimethylamino)-5-acetamido-2-chlorotriphenylmethane] are within 1.5-fold of each other in Ki: 4600 nM for the first, 5150 nM for the second.

`Clc1cc(Cl)c(Cl)c(C(c2ccc(N3CCOCC3)cc2)c2ccc(N3CCOCC3)cc2)c1` [Example 28, 4',4" bis(N-morpholinyl)-2,3,5-trichlorotriphenylmethane] and `O=[N+]([O-])c1ccc(Cl)c(C(c2ccc(N3CCCCC3)cc2)c2ccc(N3CCCCC3)cc2)c1` [Example 13, 4',4" bis(N-piperidinyl)-2-chloro-5-nitrotriphenylmethane] are within 1.5-fold of each other in Ki: 5270 nM for the first, 5000 nM for the second.

Compared with `CN(C)c1ccc(C(c2ccc(N(C)C)cc2)c2ccccc2Cl)cc1` [Example 7, 4',4" bis(dimethylamino)-2-chlorotriphenylmethane], `COc1ccccc1C(c1ccc(N(C)C)cc1)c1ccc(N(C)C)cc1` [Example 8, 4',4" bis(dimethylamino)-2-methoxytriphenylmethane] is 2.2-fold higher in Ki: 1990 nM for the first, 4290 nM for the second. The first binds more tightly here.

First: COC(=O)Nc1ccc(Cl)c(C(c2ccc(N(C)C)cc2)c2ccc(N(C)C)cc2)c1 [Example 64, 4',4" bis(dimethylamino)-2-chloro-5-(methoxycarbonylamino)triphenylmethane]
Second: CN(C)c1ccc(C(c2ccc(N(C)C)cc2)c2cc(NCc3ccco3)ccc2Cl)cc1 [Example 66, 4',4" bis(dimethylamino)-2-chloro-5-(2-furanylmethylamino)triphenylmethane]
The Ki of the first is 7-fold higher: 5270 nM for the first, 757 nM for the second.

First: CN(C(=O)OC(C)(C)C)c1ccc(C(c2ccc(N(C)C(=O)OC(C)(C)C)cc2)c2cc([N+](=O)[O-])ccc2Cl)cc1 [Example 35, 4',4" bis(N-(t-butoxycarbonyl) N-methylamino)-2-chloro-5-nitrotriphenylmethane]
Second: CN(C)c1ccc(C(c2ccc(N(C)C)cc2)c2cccc([N+](=O)[O-])c2)cc1 [Example 9, 4',4" bis(dimethylamino)-3-nitrotriphenylmethane]
The Ki of the first is 3.3-fold higher: 4560 nM for the first, 1380 nM for the second. The second binds more tightly here.

First: CN(C)c1ccc(C(c2ccc(Cl)cc2)c2ccc(N(C)C)cc2)cc1 [Example 5, 4',4" bis(dimethylamino)-4-chlorotriphenylmethane]
Second: CN(C)c1ccc(C(c2ccc(N(C)C)cc2)c2cccc(Cl)c2)cc1 [Example 6, 4',4" bis(dimethylamino)-3-chlorotriphenylmethane]
The Ki of the first is 1.8-fold higher: 4650 nM for the first, 2520 nM for the second.

Compared with `CN(C)c1ccc(C(c2ccc(N(C)C)cc2)c2ccc([N+](=O)[O-])cc2)cc1` [Example 4, 4',4" bis(dimethylamino)-4-nitrotriphenylmethane], `CN(C)c1ccc(C(c2ccc(N(C)C)cc2)c2cc(N=Cc3ccco3)ccc2Cl)cc1` [Example 65, 4',4" bis(dimethylamino)-2-chloro-5-(2-furanylmethylimino)triphenylmethane] is 2.6-fold lower in Ki: 4650 nM for the first, 1790 nM for the second.

`CN(C)c1ccc(C(c2ccc(N(C)C)cc2)c2cc(N(S(C)(=O)=O)S(C)(=O)=O)ccc2Cl)cc1` [Example 63, 4',4" bis(dimethylamino)-2-chloro-5-(dimethylsulphonimido)triphenylmethane] and `CN(C)c1ccc(C(c2ccccc2)c2ccccc2Cl)cc1` (stereo not shown) [Example 58, 4'-dimethylamino-2-chlorotriphenylmethane] are within 1.5-fold of each other in Ki: 4600 nM for the first, 4300 nM for the second.

`CN(C)c1ccc(C(O)(c2ccccc2)c2ccccc2Cl)cc1` (stereo not shown) [Example 57, 4'-dimethylamino-2-chlorotriphenylmethanol] and `CN(C)c1ccc(C(Nc2ccccc2)c2cc([N+](=O)[O-])ccc2Cl)cc1` (stereo not shown) [Example 55, phenyl-[(4'-dimethylaminophenyl)-(2-chloro-5-nitrophenyl)methyl] amine] are within 1.5-fold of each other in Ki: 2030 nM for the first, 1680 nM for the second.
